# Test results reported in patent publication US20260337189A1, “Cryptolepine Salt Derivative, Preparation Method, and Use Thereof” (ZHEJIANG XINNONG CHEMICAL CO., LTD., priority 2023, published 2026).
# Key:
# [1] = test system: tobacco Mosaic virus (TMV); test: Live protection function against tobacco Mosaic virus (TMV); assay type: in vivo; conditions: for inhibition at 500 µg/mL: Tobacco mosaic virus, read-out: Relative inhibition rate, live protection function; for Relative inhibition rate, live protection function: 500 mg/L, tobacco Xanthi nc, sprayed 24 h before inoculation, virus 10 μg/mL, 3 days
# Description: (§1) Determination of anti-tobacco Mosaic virus (TMV) activity by the following procedure:
# (§2) After weighing, cryptolepine salt derivative, ningnanmycin and the original drug of ribavirin were dissolved in DMF to obtain 1×10^5 μg/mL mother solution, and then diluted to the required concentration with 1%. Tween 80 aqueous solution.
# (§3) Select the 3-5 leaf stage of tobacco Xanthi nc with uniform growth, spray the whole plant, repeat each treatment 3 times, and set 1%. Tween80 aqueous solution as control. 24 h later, the leaf surface was coated with emery (500 mesh), the disease venom was dipped with a brush, and the whole leaf surface was gently rubbed twice along the direction of the branch pulse by using the brush, the leaf was supported by palm of hand, the virus concentration was 10 μg/mL, and the leaf was washed by water after inoculation. After 3 days, the number of disease spots was recorded and the prevention and control effect was calculated.
# (§4) Relative inhibition rate (%)=[(number of dead spots of control group-number of dead spots of test sample group)/number of dead spots of control group]×100%.
# [2] = test system: tobacco Mosaic virus (TMV); test: Live treatment effect against tobacco Mosaic virus (TMV); assay type: in vivo; conditions: 500 mg/L, tobacco Xanthi nc, sprayed after inoculation, virus 10 μg/mL, 3 days; for inhibition at 500 µg/mL: Tobacco mosaic virus, 72 h, read-out: Relative inhibition rate, live treatment effect
# Description: as §1, §2
# (§5) Select the 3-5 leaf stage of tobacco Xanthi nc with uniform growth, use a brush to vaccinate the virus in the whole leaf, the virus concentration is 10 μg/mL, and the leaf was washed with running water after inoculation. After the leaves were dried, the whole plant was sprayed with test sample, repeated 3 times every treatment, and 1%. Tween 80 aqueous solution was set as control. After 3 days, the number of disease spots was recorded and the prevention and control effect was calculated.
# as §4
# [3] = test system: tobacco Mosaic virus (TMV); test: Living passivation activity test against tobacco Mosaic virus (TMV); assay type: in vivo; conditions: 500 mg/L, tobacco Xanthi nc, sample mixed with virus juice 30 min, virus 20 μg/mL, 3 days; for inhibition at 500 µg/mL: Tobacco mosaic virus, read-out: Relative inhibition rate, living passivation activity test
# Description: as §1, §2
# (§6) Select the 3-5 leaf stage of tobacco Xanthi nc with uniform growth, mix the test sample agent with the same volume of virus juice to passivate for 30 min, friction inoculation, virus concentration 20 μg/mL, the leaf was washed with running water after inoculation, repeat 3 times, set 1%. Tween 80 aqueous solution as control. 3 days later, the number of disease spots was calculated.
# as §4
# (§7) Anti-tobacco Mosaic virus passivation activity test of all compounds was at a treatment dose of 500 μg/mL. The positive control was the commercial anti-plant virus agent viriazole.
# [4] = test system: rice sheath blight; test: Test of resistance to rice sheath blight (bactericidal activity test); assay type: in vivo; conditions: for Resistance to rice sheath blight: 400 mg/L, rice seedlings, sprayed 24 h before inoculation, 6 days after inoculation, visual inspection; for bactericidal activity against rice sheath blight: live pot test, Table 5, 400 mg/L
# Description: Bactericidal activity test, the determination procedure is as follows:
# Test of resistance to rice sheath blight: Select uniformly growing rice seedlings and spray them on the leaves at the set concentration, set a water spraying group as blank control, every treatment was repeated twice. After 24 h, the rice seedlings were inoculated with rice sheath blight strains and placed at room temperature (25±4° C.) for normal management after inoculation. The prevention and control effect was investigated by visual inspection 6 days after inoculation.
# [5] = test system: tobacco Mosaic virus (TMV); test: Anti-tobacco Mosaic virus (TMV) activity, overall comparison of Test Example 1; assay type: in vivo; conditions: 500 μg/mL; Table 4
# Description: as §1, §2, §3, §5, §6, §4, §7
# [6] = test system: Plasmodium falciparum; conditions: cited from earlier work
smiles,measurement,setting,value
CCCCCNc1c2ccccc2[n+](C)c2c1[nH]c1ccccc12 [Example 24],inhibition at 500 µg/mL,[1],36.9 ± 3.7%
same,inhibition at 500 µg/mL,[2],30.3 ± 0.8%
same,inhibition at 500 µg/mL,[3],35.2 ± 1%
same,Resistance to rice sheath blight,[4],30 ± 0%
Cc1ccc(S(=O)(=O)n2c3ccccc3c3c2cc2ccccc2[n+]3Cc2ccccc2)cc1 [Example 21],Resistance to rice sheath blight,[4],40 ± 0%
same,TMV activity compared with ribavirin,[5],better TMV activity than the ribavirin
C[n+]1c2ccccc2c(NCC2CCNCC2)c2[nH]c3ccccc3c21.[I-] [Example 42],inhibition at 500 µg/mL,[1],28.1 ± 3%
same,inhibition at 500 µg/mL,[2],30.2 ± 2.1%
same,inhibition at 500 µg/mL,[3],25.1 ± 0.2%
same,Resistance to rice sheath blight,[4],25 ± 5%
CCCCCCCCCCCCNc1c2ccccc2[n+](C)c2c1[nH]c1ccccc12 [Example 25],inhibition at 500 µg/mL,[1],27.3 ± 3%
same,inhibition at 500 µg/mL,[2],22.1 ± 1.1%
same,inhibition at 500 µg/mL,[3],35.1 ± 0.1%
same,Resistance to rice sheath blight,[4],20 ± 0%
Cc1ccc(S(=O)(=O)n2c3ccccc3c3c2cc2ccccc2[n+]3CC2CCCCC2)cc1 [Example 19],Resistance to rice sheath blight,[4],20 ± 0%
same,TMV activity compared with ribavirin,[5],better TMV activity than the ribavirin
Cn1c2c3ccccc3nc-2cc2ccccc21 [cryptolepine],activity against Plasmodium falciparum compared with Chloroquine,[6],comparable activity against Plasmodium falciparum to Chloroquine
C[n+]1c2ccccc2c(NC2CCCC2)c2[nH]c3ccccc3c21 [Example 29],"Relative inhibition rate, live protection function",[1],38.6 ± 4.6%
same,"Relative inhibition rate, live treatment effect",[2],36.5 ± 2.3%
same,"Relative inhibition rate, living passivation activity test",[3],30.5 ± 0.9%
same,Resistance to rice sheath blight,[4],30 ± 0%
Cc1ccc(S(=O)(=O)n2c3ccc(Cl)cc3c3c2cc2ccccc2[n+]3C)cc1.[Cl-] [Example 5],Resistance to rice sheath blight,[4],55 ± 5%
same,bactericidal activity against rice sheath blight,[4],more than 50%
same,TMV activity compared with ribavirin,[5],better TMV activity than the ribavirin
same,anti-TMV activity compared with commercial Ningnanmycin,[5],comparable to that of commercial Ningnanmycin
Cc1ccc(S(=O)(=O)n2c3ccccc3c3c2cc2ccccc2[n+]3CC2CC2)cc1 [Example 18],Resistance to rice sheath blight,[4],45 ± 5%
same,bactericidal activity against rice sheath blight,[4],more than 50%
same,TMV activity compared with ribavirin,[5],better TMV activity than the ribavirin
CC(N)CNc1c2ccccc2[n+](C)c2c1[nH]c1ccccc12.[I-] (centres unmarked) [Example 35],Resistance to rice sheath blight,[4],25 ± 5%
same,TMV activity compared with ribavirin,[5],better TMV activity than the ribavirin
Cc1ccc(S(=O)(=O)n2c3ccccc3c3c2cc2cc(Br)ccc2[n+]3C)cc1.[Cl-] [Example 13],Resistance to rice sheath blight,[4],35 ± 5%
same,TMV activity compared with ribavirin,[5],better TMV activity than the ribavirin
same,anti-TMV activity compared with commercial Ningnanmycin,[5],comparable to that of commercial Ningnanmycin
Cc1ccc(S(=O)(=O)n2c3ccccc3c3c2cc2ccccc2[n+]3CC(C)(C)C)cc1 [Example 20],Resistance to rice sheath blight,[4],55 ± 5%
same,bactericidal activity against rice sheath blight,[4],more than 50%
same,TMV activity compared with ribavirin,[5],better TMV activity than the ribavirin
same,anti-TMV activity compared with commercial Ningnanmycin,[5],comparable to that of commercial Ningnanmycin
C[n+]1c2ccccc2c(NCCCCN)c2[nH]c3ccccc3c21.[I-] [Example 34],Resistance to rice sheath blight,[4],20 ± 0%
same,TMV activity compared with ribavirin,[5],better TMV activity than the ribavirin
same,anti-TMV activity compared with commercial Ningnanmycin,[5],comparable to that of commercial Ningnanmycin
CCCCC(CC)CNc1c2ccccc2[n+](C)c2c1[nH]c1ccccc12 (centres unmarked) [Example 27],Resistance to rice sheath blight,[4],30 ± 0%
same,TMV activity compared with ribavirin,[5],better TMV activity than the ribavirin
same,anti-TMV activity compared with commercial Ningnanmycin,[5],comparable to that of commercial Ningnanmycin
CN1CCCC(CNc2c3ccccc3[n+](C)c3c2[nH]c2ccccc23)C1 (centres unmarked) [Example 46],Resistance to rice sheath blight,[4],30 ± 0%
same,TMV activity compared with ribavirin,[5],better TMV activity than the ribavirin
Cc1ccc(S(=O)(=O)n2c3ccc(Br)cc3c3c2cc2ccccc2[n+]3C)cc1.[Cl-] [Example 6],Resistance to rice sheath blight,[4],40 ± 0%
same,TMV activity compared with ribavirin,[5],better TMV activity than the ribavirin
same,anti-TMV activity compared with commercial Ningnanmycin,[5],comparable to that of commercial Ningnanmycin
C[n+]1c2ccccc2c(NCCCN)c2[nH]c3ccccc3c21.[I-] [Example 33],inhibition at 500 µg/mL,[1],57.9 ± 4.6%
same,inhibition at 500 µg/mL,[2],51.7 ± 3.6%
same,inhibition at 500 µg/mL,[3],49.8 ± 3.1%
same,Resistance to rice sheath blight,[4],40 ± 0%
same,TMV activity compared with ribavirin,[5],better TMV activity than the ribavirin
same,anti-TMV activity compared with commercial Ningnanmycin,[5],comparable to that of commercial Ningnanmycin
C[n+]1c2ccccc2c(NC2CCNC2)c2[nH]c3ccccc3c21.[I-] (centres unmarked) [Example 40],Resistance to rice sheath blight,[4],20 ± 0%
same,TMV activity compared with ribavirin,[5],better TMV activity than the ribavirin
Cc1ccc(S(=O)(=O)n2c3ccc(F)cc3c3c2cc2ccccc2[n+]3C)cc1 [Example 4],"Relative inhibition rate, live protection function",[1],21.6 ± 3.4%
same,"Relative inhibition rate, live treatment effect",[2],18.6 ± 1.2%
same,"Relative inhibition rate, living passivation activity test",[3],14.1 ± 1.3%
same,Resistance to rice sheath blight,[4],60 ± 0%
same,bactericidal activity against rice sheath blight,[4],more than 50%
CN(C)CC(C)(C)CNc1c2ccccc2[n+](C)c2c1[nH]c1ccccc12.[I-] [Example 39],Resistance to rice sheath blight,[4],25 ± 5%
C[n+]1c2ccccc2c(NCCCC2CCCCC2)c2[nH]c3ccccc3c21.[I-] [Example 31],Resistance to rice sheath blight,[4],25 ± 5%
CCNCCNc1c2ccccc2[n+](C)c2c1[nH]c1ccccc12.[I-] [Example 37],Resistance to rice sheath blight,[4],40 ± 0%
C[n+]1c2ccccc2c(NC2CCNCC2)c2[nH]c3ccccc3c21.[I-] [Example 41],Resistance to rice sheath blight,[4],40 ± 0%
same,TMV activity compared with ribavirin,[5],better TMV activity than the ribavirin
CC(C)CCNc1c2ccccc2[n+](C)c2c1[nH]c1ccccc12 [Example 26],Resistance to rice sheath blight,[4],35 ± 5%
same,TMV activity compared with ribavirin,[5],better TMV activity than the ribavirin
Cc1ccc(S(=O)(=O)n2c3ccc(I)cc3c3c2cc2ccccc2[n+]3C)cc1.[Cl-] [Example 7],inhibition at 500 µg/mL,[1],44.5 ± 0.4%
same,inhibition at 500 µg/mL,[2],43 ± 3.5%
same,inhibition at 500 µg/mL,[3],47.7 ± 3.1%
same,Resistance to rice sheath blight,[4],40 ± 0%
same,TMV activity compared with ribavirin,[5],better TMV activity than the ribavirin
C[n+]1c2ccccc2c(NCC2CC2)c2[nH]c3ccccc3c21 [Example 28],Resistance to rice sheath blight,[4],60 ± 0%
same,bactericidal activity against rice sheath blight,[4],more than 50%
C[n+]1c2ccccc2c(NCCCN2CCCCC2)c2[nH]c3ccccc3c21 [Example 47],"Relative inhibition rate, live protection function",[1],36.4 ± 2.8%
same,"Relative inhibition rate, live treatment effect",[2],33.3 ± 2.0%
same,"Relative inhibition rate, living passivation activity test",[3],35.7 ± 0.3%
same,Resistance to rice sheath blight,[4],45 ± 5%
same,bactericidal activity against rice sheath blight,[4],more than 50%
